Broadly, the MIC is the smallest concentration in the dilution series that meets the test's criterion for growth inhibition. High values mean a less susceptible organism, low ones a more susceptible organism. A word on the IC50: it is the midpoint of a concentration-inhibition curve. What is called logP is the decadic logarithm of the partition coefficient of the neutral form, usually between octanol and water. High values mean higher lipophilicity, low ones lower lipophilicity.

The results in this text go back to ChEMBL document CHEMBL1130897, “Novel inhibitors of bacterial two-component systems with gram positive antibacterial activity: pharmacophore identification based on the screening hit closantel” (Bioorg Med Chem Lett, 1998).

Values after ≈ are worked out from the molar mass of the structure shown. Some results are limits rather than exact numbers.

Data set [1] deals with Enterococcus faecium. The data set can be described thus: Compound was tested for its antibacterial activity against Enterococcus faecium (Vancomycin resistant, VRE) OC 3312. In kind it is functional.
For data set [2], the system named is Staphylococcus aureus. The data set can be described thus: Compound was tested for its antibacterial activity against Staph aureus ATCC 29213. In kind it is functional.
Data set [3] relates to Staphylococcus aureus. The data set can be described thus: Compound was tested for its antibacterial activity against MRSA (methicillin resistant) OC 2089. It is filed as functional.
The subject of data set [4] is Enterococcus faecalis. Put plainly: Compound was tested for its antibacterial activity against Enterococcus faecalis OC 3041. It is filed as functional.
The target in data set [5] is T1, KinA/Spo0F (sporulation kinase A/sporulation initiation phosphotransferase F) (Bacillus subtilis (strain 168), UniProt P06628+P16497).
T1 sequence (P06628 whole entry): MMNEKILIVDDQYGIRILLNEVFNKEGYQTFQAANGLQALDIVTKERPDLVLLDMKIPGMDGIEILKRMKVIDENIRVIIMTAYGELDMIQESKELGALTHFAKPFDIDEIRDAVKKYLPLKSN
T1 sequence (P16497 whole entry): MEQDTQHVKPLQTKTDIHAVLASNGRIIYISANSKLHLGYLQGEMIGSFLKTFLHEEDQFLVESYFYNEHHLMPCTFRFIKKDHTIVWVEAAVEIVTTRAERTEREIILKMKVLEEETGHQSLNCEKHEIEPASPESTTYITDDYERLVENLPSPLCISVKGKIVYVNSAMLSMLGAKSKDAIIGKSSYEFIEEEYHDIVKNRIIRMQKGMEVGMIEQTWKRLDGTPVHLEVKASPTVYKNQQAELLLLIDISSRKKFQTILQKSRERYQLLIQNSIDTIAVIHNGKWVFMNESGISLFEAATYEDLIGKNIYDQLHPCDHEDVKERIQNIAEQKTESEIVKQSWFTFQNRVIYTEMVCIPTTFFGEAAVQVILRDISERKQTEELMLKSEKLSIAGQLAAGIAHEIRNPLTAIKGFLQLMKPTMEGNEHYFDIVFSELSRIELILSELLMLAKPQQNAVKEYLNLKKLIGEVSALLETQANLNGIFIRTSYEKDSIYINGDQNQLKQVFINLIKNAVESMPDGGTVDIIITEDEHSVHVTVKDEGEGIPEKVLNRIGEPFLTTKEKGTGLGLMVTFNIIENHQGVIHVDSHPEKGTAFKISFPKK
The data set can be described thus: Inhibition of histidine protein kinase (KinA) phosphorylation in the presence of response regulator (Spo0F). In kind it is protein assay.

A short description of data set [6]: Partition coefficient (logP). It is filed as physicochemical. The settings on record: octanol/water.

Regarding `Cc1onc(-c2ccccc2)c1C(=O)N[C@@H]1C(=O)N2[C@@H]1SC(C)(C)[C@@H]2C(=O)O` [OXACILLIN], the MIC is greater than 64 µg/mL in data set [1], 0.25 µg/mL (≈ 0.623 µM) in data set [2], greater than 64 µg/mL in data set [3] and 16 µg/mL (≈ 39.9 µM) in data set [4].

Take `O=C(Nc1ccccc1)c1cc(Cl)cc(Cl)c1O`: the IC50 in data set [5] came to 385 µM.

For the molecule `O=C(Nc1ccc(Cl)c(Cl)c1)Nc1cc(Cl)cc(Cl)c1O`, the IC50 in data set [5] worked out at 365 µM.

On to `O=C(Nc1cc(Cl)cc(Cl)c1O)c1ccc(Cl)c(Cl)c1`, for which the MIC came out at 1 µg/mL (≈ 2.85 µM) in data set [1], 0.5 µg/mL (≈ 1.42 µM) in data set [2], 0.25 µg/mL (≈ 0.712 µM) in data set [3] and 2 µg/mL (≈ 5.7 µM) in data set [4]. The IC50 in data set [5] is greater than 500 µM.

As for `O=C(Nc1ccc(Cl)c(Cl)c1)c1cc(I)cc(I)c1O`, in data set [5], the IC50 was 22 µM.

Consider `CN[C@H](CC(C)C)C(=O)N[C@H]1C(=O)N[C@@H](CC(N)=O)C(=O)N[C@H]2C(=O)N[C@H]3C(=O)N[C@H](C(=O)N[C@H](C(=O)O)c4cc(O)cc(O)c4-c4cc3ccc4O)[C@H](O)c3ccc(c(Cl)c3)Oc3cc2cc(c3O[C@@H]2O[C@H](CO)[C@@H](O)[C@H](O)[C@H]2O[C@H]2C[C@](C)(N)[C@H](O)[C@H](C)O2)Oc2ccc(cc2Cl)[C@H]1O` [VANCOMYCIN], for which, in data set [1], the MIC is greater than 128 µg/mL.

Turning to `O=C(NCc1ccc(Cl)c(Cl)c1)c1cc(Cl)cc(Cl)c1O`, in data set [5], the IC50 was greater than 500 µM.

Take `O=C(Nc1ccc(Cl)c(Cl)c1)c1cc(Cl)c(O)c(Cl)c1`: the minimum inhibitory concentration (MIC) in data set [1] was 64 µg/mL (≈ 182 µM); in data set [2] it was 16 µg/mL (≈ 45.6 µM); in data set [3] it was 16 µg/mL (≈ 45.6 µM); in data set [4], 64 µg/mL (≈ 182 µM). Also, the IC50 in data set [5] is 98 µM.

Turning to `COc1c(I)cc(I)cc1C(=O)Nc1cc(C)c(C(C#N)c2ccc(Cl)cc2)cc1Cl` (stereo unspecified), the IC50 in data set [5] was greater than 500 µM.

For the molecule `O=C(Nc1ccc(Cl)c(Cl)c1)c1cc(Cl)cc(Cl)c1`, the IC50 in data set [5] is greater than 500 µM.

Regarding `Oc1c(Cl)cc(Cl)cc1/C=C/c1ccc(Cl)c(Cl)c1`, in data set [5], the half-inhibitory concentration (IC50) was greater than 500 µM.

With `Cc1cc(NC(=O)c2cc(I)c(O)c(I)c2)c(Cl)cc1C(C#N)c1ccc(Cl)cc1` (stereo unspecified), the IC50 in data set [5] is 9 µM.

Turning to `Cc1cc(NC(=O)c2cc(Cl)cc(Cl)c2O)c(Cl)cc1C(C#N)c1ccc(Cl)cc1` (stereo unspecified), in data set [5], the IC50 stood at 4.8 µM.

Turning to `O=C(Nc1ccc(Cl)c(Cl)c1)c1cc(Cl)cc(Cl)c1O` [3,3',4',5-TETRACHLOROSALICYLANILIDE], the MIC in data set [1] came out at 0.5 µg/mL (≈ 1.42 µM); in data set [2] it was 0.5 µg/mL (≈ 1.42 µM); in data set [3] it was 0.25 µg/mL (≈ 0.712 µM); in data set [4] it was 0.5 µg/mL (≈ 1.42 µM). In addition, the IC50 in data set [5] is 45 µM. This molecule came in with a logP in data set [6] of 4.8.

In the case of `Cc1cc(N(C)C(=O)c2cc(I)cc(I)c2O)c(Cl)cc1C(C#N)c1ccc(Cl)cc1` (stereo unspecified), the IC50 in data set [5] is greater than 500 µM.
